From publication PMC9611727, “Optimization of a Novel Mandelamide-Derived Pyrrolopyrimidine Series of PERK Inhibitors” (Pharmaceutics, 2022)
Read-outs that look alike come from different tables or passages of the source.

How the values were obtained:
p-eIF2α = test: Cellular PERK inhibition: p-eIF2a TR-FRET in tunicamycin-treated HEK293-EGFP-eIF2a cells; assay type: cell-based
Experimental: Methods used to evaluate in vitro cellular PERK inhibition are described and published elsewhere. In brief, stableHEK293 cells were created using lentiviral particles harboring a GFP-eIF2a expression vector. Transfectants were selected by puromycin and enriched using fluorescent cell sorting based on GFP expression. HEK293-EGFP-eIF2a cells were plated at 5000 cells/well in 384-well assay plates and incubated overnight. The following day, pyrrolopyrimidine analogs were added to wells using an Echo acoustic dispenser and incubated for 30 min. ER stress was induced by the addition of tunicamycin to the wells at […] for 2 h. Cells were lysed and peIF2a was evaluated using a TR-FRET system, as described above.
The PERK activity of analog I was evaluated using cell-free biochemical assays. In these assays, PERK phosphorylation of eIF2a was assessed using a FRET-based labelled protein assay. Compounds were then evaluated for cellular activity by quantifying inhibition of eIF2a phosphorylation in HEK293 cells treated with the ER inducer tunicamycin [7].

[1] = Plasma protein binding (RED dialysis), dog; assay type: in vitro ADME; conditions: male, beagle, pH 7.4
Description: Verapamil hydrochloride and tamoxifen were obtained from Sigma-Aldrich. […]
Pooled mixed gender human donor plasma, Sprague Dawley male rat plasma, CD-1 (ICR) male mouse plasma and male beagle dog plasma were obtained from Bioreclamation Inc. (Westbury, NY). Reusable Teflon base plate, RED Device inserts, and BupH Phosphate Buffered Saline packs (0.1 M sodium phosphate and 0.15 M sodium chloride when dissolved in 0.5 L water) were obtained from Thermo Scientific (Waltham, MA). Propranolol was obtained from Sigma-Aldrich (St. Louis, MO). All solvents were obtained from commercial sources and used without further purification.
Frozen plasma was thawed and the pH of plasma and BupH phosphate buffered saline was adjusted to 7.4 prior to dialysis. Into each well of a reusable Teflon 48-well base plate a RED insert was placed open end up. Ten microliters (10 µL) of the test compound (0.1 mM in acetonitrile/water, 1:1 v/v) was added to 990 µL of plasma to achieve 1 µM final concentration. The spiked plasma (200 µL) was added to the sample chamber, which is indicated by the red retainer ring (donor side). To the other side (receiver side), 350 µL of BupH phosphate buffered saline (pH 7.4) was added. A buffer-to-buffer assay was also performed to measure equilibrium across the membrane in the absence of plasma protein.
Propranolol was used as a positive control. All samples were prepared in triplicate. The RED device base plate was then sealed and placed in a shaking incubator set to maintain 37°C and 200 rpm for four hours.
After incubation, 100 µL of each sample was combined with an equal volume of either plasma or buffer, to create a similar matrix for all samples. Blank buffer was added to plasma samples, and vice versa. Samples from the incubation, along with the original compound-spiked plasma samples, were prepared for analysis in the same manner. Protein precipitation by addition of two parts of ice-cold acetonitrile to one part of reaction volume was carried out. To ensure complete protein precipitation samples were sealed and placed overnight at 4°C. The next morning samples were centrifuged at 3,600 rpm for 15 minutes. The supernatants (70 µL) were supplemented with an equal volume of internal standard solution (0.15 µM verapamil in water) and subjected to LC-MS/MS analysis.

[2] = Metabolic clearance in hepatocytes, human; assay type: in vitro ADME; conditions: male, pooled cryopreserved human hepatocytes (ten donors), read-out: Hepatocyte Clearance (t1/2 min) Human
Experimental: (§1) Metabolic Clearance in Hepatocytes
(§2) Testosterone was obtained from Cerilliant (Round Rock, TX). 7-Hydroxycoumarin was obtained from Sigma-Aldrich (St.
(§3) Louis, MO). Ten-donor male pooled cryopreserved human hepatocytes, cryopreserved male Sprague Dawley rat hepatocytes, cryopreserved male ICR/CD-1 mouse hepatocytes, cryopreserved male beagle dog hepatocytes, In VitroGro HI Medium (Incubation), and InVitroGro HT Medium (Thawing) were obtained from Bioreclamation IVT (Baltimore, MD). All solvents were obtained from commercial sources and used without further purification.Test compound was prepared as a 1 mM stock solution in DMSO. A 2 µM solution of test compound and testosterone was prepared (7 - hydroxycoumarin was prepared at 20 µM) in In VitroGro HI Medium (Incubation). These solutions were placed in a sterile incubator set to maintain 37°C, 5% CO2, and 98% humidity to pre-warm. Cryopreserved hepatocytes were prepared at a concentration of 2 x 10^6 living cells/mL in incubation media and placed in the incubator to pre-warn. The compound solutions and hepatocyte mixtures were then combined at a ratio of 1:1 (v:v). The final volume of the reaction mixture was 750 µL, containing 1 µM test compound and 1 x 10^6 cells/mL. The reaction mixture was placed in the incubator on a plate shaker. After 0, 15, 30, 60, 90, and 120 minutes of incubation, 100 µL of reaction mixtures were removed from the incubation plate and mixed with 150 µL of ice-cold acetonitrile in a designated well of a 96-well crash plate. The 96-well crash plate was placed on ice for 15 min, and samples were centrifuged (3,600 rpm, 10 min, 4 °C) to precipitate protein.
(§4) The supernatants were diluted 1:1 (v/v) with water containing tolbutamide, (internal standard for positive and negative modes, respectively) in a 96-well shallow injection plate. This plate was sealed for LC-MS analysis. All measurements

[3] = Metabolic clearance in hepatocytes, mouse; assay type: in vitro ADME; conditions: male, ICR/CD-1, cryopreserved mouse hepatocytes, read-out: Hepatocyte Clearance (t1/2 min) Mouse
Experimental: as §1, §2, §3, §4

[4] = Metabolic clearance in hepatocytes, dog; assay type: in vitro ADME; conditions: male, beagle, cryopreserved dog hepatocytes, read-out: Hepatocyte Clearance (t1/2 min) Dog
Experimental: as §1, §2, §3, §4

[5] = Homo sapiens, HEK293 cells, tunicamycin-induced ER stress, read-out: p-eIF2α IC50

| Structure (SMILES) | IC50 (p-eIF2α; [5]) [nM] | IC50 (p-eIF2α; bound stated, read-out: cellular potency) [nM] | fraction unbound at 4 h, 1 µM [1] | half-life at 1 µM [2] [h] | half-life at 1 µM [3] [h] | half-life at 1 µM [4] [h] |
| --- | --- | --- | --- | --- | --- | --- |
| Cc1nc(N)c2c(-c3ccc(NC(=O)[C@H](O)c4cccc(Cl)c4)cc3F)cn(C)c2n1 [Compound 48] | 10 | < 15 | 0.004 | 9.27 | 0.883 | 3.58 |
| Cc1nc(N)c2c(-c3ccc(NC(=O)[C@H](O)c4cccc(F)c4)c(F)c3C)cn(C)c2n1 [Compound 65] | 30 |  | 0.013 | 6.5 | 1.07 | 9.45 |
| Cc1nc(N)c2c(-c3ccc(NC(=O)[C@H](O)c4cc(F)cc(C(F)(F)F)c4)cc3C)cn(C)c2n1 [Compound 39] | 11 |  | < 0.001 | 4.62 | 5.33 | 3.72 |
| Cc1nc(N)c2c(-c3cc(F)c(NC(=O)[C@H](O)c4cccc(F)c4)cc3C)cn(C)c2n1 [Compound 66] | 42 |  | 0.018 | 5.97 | 2.78 | 0.65 |
| Cc1nc(N)c2c(-c3ccc(NC(=O)[C@H](O)c4cccc(F)c4)cc3C)cn(C)c2n1 [Compound 24] | 51 |  | 0.03 | 12.2 | 0.517 | > 16.7 |
| Cc1nc(N)c2c(-c3ccc(NC(=O)[C@H](O)c4cccc(F)c4)c(F)c3F)cn(C)c2n1 [Compound 70, (R)-N-(4-(4-amino-2,7-dimethyl-7H-pyrrolo[2,3-d]pyrimidin-5-yl)-2,3-difluorophenyl)-2-(3-fluorophenyl)-2-hydroxyacetamide] | 24 |  | 0.006 | 6 | 0.75 | 4.47 |
| Cc1cc(NC(=O)[C@H](O)c2cccc(F)c2)ccc1-c1cn(C)c2ncnc(N)c12 [Compound 11, (R)-N-(4-(4-amino-7-methyl-7H-pyrrolo[2,3-d]pyrimidin-5-yl)-3-methylphenyl)-2-(3-fluorophenyl)-2-hydroxy acetamide] | 8.4 |  |  |  |  |  |
| Cc1nc(N)c2c(-c3ccc(NC(=O)[C@H](O)c4cccc(C(F)(F)F)c4)cc3C)cn(C)c2n1 [Compound 26] | 15 |  | 0.005 | 3.23 | 1.97 | 2.17 |
| Cc1nc(N)c2c(-c3ccc(NC(=O)[C@H](O)c4cccc(Cl)c4)cc3C)cn(C)c2n1 [Compound 28] | 16 |  | 0.017 | 13 | 1.03 | 5.92 |
| Cc1cc(F)cc([C@@H](O)C(=O)Nc2ccc(-c3cn(C)c4nc(C)nc(N)c34)c(C)c2)c1 [Compound 41] | 10 |  | 0.012 | 1.13 | 0.4 | 3.87 |
| Cc1nc(N)c2c(-c3ccc(NC(=O)[C@H](O)c4cc(F)cc(F)c4)cc3C)cn(C)c2n1 [Compound 38] | 14 |  | 0.016 | 14.9 | 13.4 | 7.67 |
